Reference: ChEMBL document CHEMBL1201862, “PubChem BioAssay data set” (2004)
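Values below derive from 48-hour exposures of cells grown in 96-well plates, with endpoints linearly interpolated between the two concentrations bracketing the appropriate inhibition level. Abbreviation: GI50, concentration required for 50% inhibition of growth.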 The source made the active and inactive calls. Cut-off read from the data, not from the text of the source: active = GI50 up to about 1.1 µM and inactive = higher.

Experiments:
Assay in all cases: NCI tumour cell line growth inhibition, 48 h
[1] = tested on: SK-MEL-2
[2] = tested on: A498
[3] = tested on: U-251
[4] = tested on: 786-0
[5] = tested on: SF-268
[6] = tested on: SW-620
[7] = tested on: HCC 2998
[8] = tested on: K562
[9] = tested on: HOP-92
[10] = tested on: SF-539
[11] = tested on: OVCAR-4
[12] = tested on: HOP-62
[13] = tested on: A549
[14] = tested on: IGROV-1
[15] = tested on: SK-MEL-28
[16] = tested on: HL-60
[17] = tested on: M14
[18] = tested on: UACC-62
[19] = tested on: SK-MEL-5
[20] = tested on: CCRF-CEM

In the case of CCOC(=O)Cc1csc(Nc2ccc(OCC)cc2)n1, the GI50 [1] is reported as > 100 µM (inactive), the GI50 [2] is reported as > 100 µM (inactive) and the GI50 [3] is reported as > 100 µM (inactive). The GI50 [4] was > 100 µM (inactive), the GI50 [5] was > 100 µM (inactive) and the GI50 [6] was > 100 µM (inactive). The GI50 [7] was > 100 µM (inactive), the GI50 [8] was 92.7 µM (inactive) and the GI50 [9] was 47.4 µM (inactive). The GI50 [10] was > 100 µM (inactive), the GI50 [11] was > 100 µM (inactive) and the GI50 [12] was > 100 µM (inactive). For the same molecule, the GI50 [13] was > 100 µM (inactive), the GI50 [14] was > 100 µM (inactive) and the GI50 [15] was > 100 µM (inactive). For the same molecule, the GI50 [16] was > 100 µM (inactive).

In the case of C=C1C(C(=O)OC)[C@H]1C(=O)OC (some centres not stated), the GI50 [1] is reported as > 100 µM (inactive), the GI50 [2] is reported as > 100 µM (inactive) and the GI50 [3] is reported as > 100 µM (inactive). The GI50 [17] was > 100 µM (inactive), the GI50 [4] was > 100 µM (inactive) and the GI50 [5] was > 100 µM (inactive). The GI50 [6] was > 100 µM (inactive), the GI50 [7] was > 100 µM (inactive) and the GI50 [9] was > 100 µM (inactive). For the same molecule, the GI50 [10] was > 100 µM (inactive), the GI50 [11] was > 100 µM (inactive) and the GI50 [18] was > 100 µM (inactive). The GI50 [12] was > 100 µM (inactive), the GI50 [19] was > 100 µM (inactive) and the GI50 [13] was > 100 µM (inactive). The GI50 [14] was > 100 µM (inactive), the GI50 [15] was > 100 µM (inactive) and the GI50 [16] was > 100 µM (inactive).

In the case of COc1ccc(C(=O)N2c3ccccc3N(C)n3cccc3C2CC(=O)O)cc1 (configuration not stated), the GI50 [1] is reported as > 100 µM (inactive), the GI50 [20] is reported as > 100 µM (inactive) and the GI50 [2] is reported as > 100 µM (inactive). The GI50 [17] was > 100 µM (inactive), the GI50 [4] was > 100 µM (inactive) and the GI50 [5] was > 100 µM (inactive). For the same molecule, the GI50 [6] was > 100 µM (inactive), the GI50 [7] was > 100 µM (inactive) and the GI50 [8] was > 100 µM (inactive). For the same molecule, the GI50 [9] was > 100 µM (inactive), the GI50 [10] was > 100 µM (inactive) and the GI50 [11] was > 100 µM (inactive). For the same molecule, the GI50 [18] was > 100 µM (inactive), the GI50 [12] was > 100 µM (inactive) and the GI50 [19] was > 100 µM (inactive). For the same molecule, the GI50 [13] was > 100 µM (inactive), the GI50 [14] was > 100 µM (inactive) and the GI50 [15] was > 100 µM (inactive). The GI50 [16] was > 100 µM (inactive).

For Cc1cc2c(c(N)c1C)C(=O)c1ccccc1C2=O, the GI50 [1] was 66.8 µM (inactive), the GI50 [20] was > 100 µM (inactive) and the GI50 [2] was 19.7 µM (inactive). For the same molecule, the GI50 [3] was 20.3 µM (inactive), the GI50 [17] was 29.2 µM (inactive) and the GI50 [4] was 20.2 µM (inactive). The GI50 [5] was 25.5 µM (inactive), the GI50 [6] was 59.7 µM (inactive) and the GI50 [7] was 40.6 µM (inactive). For the same molecule, the GI50 [8] was > 100 µM (inactive), the GI50 [9] was 18 µM (inactive) and the GI50 [10] was 12.5 µM (inactive). For the same molecule, the GI50 [11] was 17.5 µM (inactive), the GI50 [18] was 5.12 µM (inactive) and the GI50 [12] was 13.9 µM (inactive). For the same molecule, the GI50 [19] was 20.2 µM (inactive), the GI50 [13] was 26.3 µM (inactive) and the GI50 [14] was 12.6 µM (inactive). The GI50 [16] was > 100 µM (inactive).

In the case of CCCC(=O)OC[n+]1ccc2c(C)c3[nH]c4ccccc4c3c(C)c2c1, the GI50 [1] is reported as 1.51 µM (inactive), the GI50 [20] is reported as 1.66 µM (inactive) and the GI50 [2] is reported as 1.34 µM (inactive). For the same molecule, the GI50 [3] was 0.498 µM (active), the GI50 [17] was 1.12 µM (inactive) and the GI50 [4] was 0.305 µM (active). The GI50 [5] was 0.661 µM (active), the GI50 [6] was 0.215 µM (active) and the GI50 [7] was 0.611 µM (active). For the same molecule, the GI50 [8] was 0.466 µM (active), the GI50 [9] was 1.32 µM (inactive) and the GI50 [10] was 0.519 µM (active). The GI50 [11] was 0.706 µM (active), the GI50 [18] was 1.5 µM (inactive) and the GI50 [12] was 0.914 µM (active). The GI50 [19] was 1.54 µM (inactive), the GI50 [13] was 0.317 µM (active) and the GI50 [14] was 0.51 µM (active). For the same molecule, the GI50 [16] was 1.68 µM (inactive).

With CSC1=C(C(=O)N(COCC[Si](C)(C)C)c2ccccc2Br)CCC(C(C)(C)C)C1 (configuration not stated) the GI50 [1] was 14 µM (inactive), the GI50 [20] was 22.7 µM (inactive) and the GI50 [2] was 28.1 µM (inactive). For the same molecule, the GI50 [3] was 11.6 µM (inactive), the GI50 [17] was 13.1 µM (inactive) and the GI50 [4] was 13.3 µM (inactive). The GI50 [6] was 13.8 µM (inactive), the GI50 [7] was 13.4 µM (inactive) and the GI50 [8] was 8.28 µM (inactive). For the same molecule, the GI50 [9] was 12.9 µM (inactive), the GI50 [11] was 10.5 µM (inactive) and the GI50 [18] was 10.9 µM (inactive). The GI50 [12] was 18.1 µM (inactive), the GI50 [19] was 12.8 µM (inactive) and the GI50 [13] was 17 µM (inactive). For the same molecule, the GI50 [14] was 23.2 µM (inactive), the GI50 [15] was 25.8 µM (inactive) and the GI50 [16] was 3.24 µM (inactive).

For C=C(C)C(=O)O[C@H]1[C@H]2[C@H](OC(=O)[C@H]2C)[C@H](O)[C@@H](C)[C@@H]2C=CC(=O)[C@]21C, the GI50 [1] was 4.13 µM (inactive), the GI50 [20] was 2.07 µM (inactive) and the GI50 [2] was 2.69 µM (inactive). The GI50 [3] was 3.16 µM (inactive), the GI50 [17] was 5.97 µM (inactive) and the GI50 [4] was 2.49 µM (inactive). For the same molecule, the GI50 [5] was 3.4 µM (inactive), the GI50 [6] was 2.72 µM (inactive) and the GI50 [7] was 2.45 µM (inactive). For the same molecule, the GI50 [9] was 3.66 µM (inactive), the GI50 [10] was 3.67 µM (inactive) and the GI50 [11] was 5.64 µM (inactive). For the same molecule, the GI50 [18] was 1.77 µM (inactive), the GI50 [12] was 9.06 µM (inactive) and the GI50 [19] was 5.47 µM (inactive). The GI50 [13] was 4.16 µM (inactive), the GI50 [14] was 2.37 µM (inactive) and the GI50 [15] was 2.26 µM (inactive). For the same molecule, the GI50 [16] was 0.692 µM (active).

With CN(C(=O)c1ccccc1)C1CCCC(=O)CC1 (configuration not stated) the GI50 [1] was > 100 µM (inactive), the GI50 [20] was > 100 µM (inactive) and the GI50 [2] was > 100 µM (inactive). The GI50 [3] was > 100 µM (inactive), the GI50 [17] was > 100 µM (inactive) and the GI50 [4] was > 100 µM (inactive). The GI50 [5] was > 100 µM (inactive), the GI50 [6] was > 100 µM (inactive) and the GI50 [7] was > 100 µM (inactive). The GI50 [8] was > 100 µM (inactive), the GI50 [9] was > 100 µM (inactive) and the GI50 [10] was > 100 µM (inactive). The GI50 [11] was > 100 µM (inactive), the GI50 [18] was > 100 µM (inactive) and the GI50 [12] was > 100 µM (inactive). The GI50 [13] was > 100 µM (inactive), the GI50 [14] was > 100 µM (inactive) and the GI50 [15] was > 100 µM (inactive). The GI50 [16] was > 100 µM (inactive).
